From ChEMBL document CHEMBL3352654, “Synthesis, biological evaluation and SAR analysis of O-alkylated analogs of quercetin for anticancer” (Bioorg Med Chem Lett, 2014)

How the values were obtained:
Format in all cases: functional, cell-based
A549 = assay: Anticancer activity against human A549 cells by HTS assay
NCI-H157 = assay: Anticancer activity against human NCI-H157 cells by HTS assay
[1] = Anticancer activity against human H460 cells by HTS assay; settings: NCI-H460
NCI-H1792 = assay: Anticancer activity against human NCI-H1792 cells by HTS assay
[2] = Anticancer activity against human NCI-H1944 cells by HTS assay
[3] = Anticancer activity against human […] cells by HTS assay
NCI-H522 = assay: Anticancer activity against human NCI-H522 cells by HTS assay
HOP-62 = assay: Anticancer activity against human HOP62 cells by HTS assay
[4] = Anticancer activity against human H1299 cells by HTS assay; settings: NCI-H1299
[5] = Anticancer activity against human 292G cells by HTS assay
[6] = Anticancer activity against human Calu1 cells by HTS assay; settings: Calu-1
[7] = Anticancer activity against human M4E cells by HTS assay
[8] = Anticancer activity against human LOXIMVI cells by HTS assay; settings: LOX IMVI
M14 = assay: Anticancer activity against human M14 cells by HTS assay
[9] = Anticancer activity against human SKBR cells by HTS assay
HeLa = assay: Anticancer activity against human HeLa cells by HTS assay

Row | IC50 (A549) [µM] | IC50 (NCI-H157) [µM] | IC50 [1] [µM] | IC50 (NCI-H1792) [µM] | IC50 [2] [µM] | IC50 [3] [µM] | IC50 (NCI-H522) [µM] | IC50 (HOP-62) [µM] | IC50 [4] [µM] | IC50 [5] [µM] | IC50 [6] [µM] | IC50 [7] [µM] | IC50 [8] [µM] | IC50 (M14) [µM] | IC50 [9] [µM] | IC50 (HeLa) [µM] | SMILES
1 | 47.9 | > 50 | > 50 | > 50 | > 50 | > 50 | > 50 | > 50 | > 50 | > 50 | > 50 | > 50 | > 50 | > 50 | > 50 | > 50 | CCCOc1cc(O)c2c(=O)c(OCCC)c(-c3ccc(OCCC)c(OCCC)c3)oc2c1
2 | > 50 | > 50 | > 50 | > 50 | 0.39 | > 50 | > 50 | > 50 | > 50 | > 50 | > 50 | > 50 | > 50 | > 50 | > 50 | > 50 | CCOc1c(-c2ccc(O)c(O)c2)oc2cc(O)cc(O)c2c1=O
3 | 1.24 | 0.67 | 1.03 | 1 | 1.78 | 2.85 | 22.1 | 4.45 | 1.77 | 4.11 | 1.5 | 6.18 | 1.14 | 0.94 | 3.19 | 1.2 | CCOc1ccc(-c2oc3cc(O)cc(O)c3c(=O)c2O)cc1O
4 | 47.6 | > 50 | 22.1 | > 50 | > 50 | > 50 | > 50 | 44 | 24.9 | > 50 | > 50 | 21.4 | 19.4 | > 50 | > 50 | > 50 | CCOc1cc(O)c2c(=O)c(OCC)c(-c3ccc(OCC)c(OCC)c3)oc2c1
5 | 0.79 | 0.8 | 1.69 | 3.13 | 0.91 | 3.02 | 1.4 | 2.44 | 6.03 | 2.11 | 7.08 | 1.9 | 2.38 | 2.26 | 0.45 | 0.57 | CCCOc1c(-c2ccc(O)c(O)c2)oc2cc(O)cc(O)c2c1=O
6 | 48.4 | > 50 | > 50 | > 50 | > 50 | > 50 | > 50 | > 50 | > 50 | > 50 | > 50 | > 50 | > 50 | > 50 | > 50 | > 50 | CCCCOc1cc(O)c2c(=O)c(OCCCC)c(-c3ccc(OCCCC)c(OCCCC)c3)oc2c1
7 | 1.19 | 8.09 | 5.25 | 2.51 | 10.1 | 29.1 | > 50 | 10.6 | 12.8 | 17.2 | 37.4 | 20.4 | 15.2 | 20.3 | 6.26 | 0.91 | CCOc1cc(O)c2c(=O)c(OCC)c(-c3ccc(O)c(O)c3)oc2c1
8 | 2.06 | 0.39 | 3.16 | 3.09 | 0.56 | 15.9 | 35.6 | 4.43 | 4.54 | 17.7 | 6.21 | 6.29 | 2.36 | 9.35 | 4.39 | 0.87 | CCCCOc1cc(O)c2c(=O)c(O)c(-c3ccc(OCCCC)c(O)c3)oc2c1
9 | 1.13 | 5.92 | 3.05 | 6.03 | 1.17 | 8.92 | > 50 | 4.68 | 5.05 | 8.75 | 5.46 | 11.2 | 2.55 | 3.47 | 4.58 | 6.09 | CCCCOc1cc(O)c2c(=O)c(OCCCC)c(-c3ccc(O)c(O)c3)oc2c1
10 | 26.2 | 40.9 | 31.1 | 30.6 | > 50 | > 50 | > 50 | 47.2 | > 50 | > 50 | 31.9 | > 50 | > 50 | > 50 | 34.5 | 47 | CCCOc1cc(O)c2c(=O)c(OCCC)c(-c3ccc(O)c(O)c3)oc2c1
11 | 22.6 | > 50 | 9.7 | > 50 | 42.4 | 25.5 | 7.21 | 30.2 | 21.8 | > 50 | > 50 | > 50 | 49.4 | > 50 | > 50 | 20.2 | CCOc1cc(O)c2c(=O)c(O)c(-c3ccc(OCC)c(O)c3)oc2c1
12 | 3.07 | 3.45 | 2.75 | 3.36 | 2.86 | > 50 | 17.4 | 12.1 | 34.8 | 40.7 | > 50 | 30.7 | > 50 | 4.29 | 8.3 | 1.49 | COc1cc(O)c2c(=O)c(O)c(-c3ccc(OC)c(O)c3)oc2c1 [OMBUINE]
13 | 22.6 | > 50 | 15.6 | > 50 | 4.72 | > 50 | > 50 | 36.3 | 48.5 | > 50 | > 50 | 18 | > 50 | > 50 | 6.66 | 14.6 | CCOc1cc(O)c2c(=O)c(OCC)c(-c3ccc(OCC)c(O)c3)oc2c1
14 | 18.6 | > 50 | 28.8 | > 50 | 4.75 | > 50 | > 50 | 36 | 22.8 | > 50 | > 50 | 48.2 | > 50 | 34 | 12 | 12.9 | CCCOc1cc(O)c2c(=O)c(OCCC)c(-c3ccc(OCCC)c(O)c3)oc2c1

Row | SMILES | IC50 (A549) [µM] | IC50 (NCI-H157) [µM] | IC50 [1] [µM] | IC50 (NCI-H1792) [µM] | IC50 [2] [µM] | IC50 [3] [µM] | IC50 (NCI-H522) [µM] | IC50 (HOP-62) [µM] | IC50 [4] [µM] | IC50 [5] [µM] | IC50 [6] [µM] | IC50 [7] [µM] | IC50 [8] [µM] | IC50 (M14) [µM] | IC50 [9] [µM] | IC50 (HeLa) [µM]
15 | O=c1c(O)c(-c2ccc(O)c(O)c2)oc2cc(O)cc(O)c12 [QUERCETIN] | 6.2 | 6 | 9.62 | 3.85 | 10.2 | 16.9 | 5.77 | 7.52 | 13.6 | > 50 | 23.6 | 21.7 | 4.65 | 12.8 | 16.7 | 3.56
